Test results: patent publication US8039634B2, “Oxazole hydroxamic acid derivatives and use thereof” (SK Holdings Co., Ltd., priority 2005, dated 2011)
Converted amounts (≈) assume the structure as drawn.

Test system: HDAC
Test: Inhibition of HDAC activity (fluorometric, HeLa nuclear extract)
Assay type: biochemical, human
Settings: 30 min room temperature
Description: In order to determine inhibitory activity of a compound in accordance with the present invention on HDAC, evaluation was carried out using an aminocoumarin derivative of ω-acetylated lysine as a substrate for an enzyme. As an enzyme source, a nuclear extract obtained from human cervical cancer cell line HeLa cells was used. The above evaluation was carried out with modification of a method based on the details described in Weegener et al. (2003) Analytical Biochemistry, 321, 203-208. That is, […], […] of nuclear extract and a compound of Example 1 at different concentrations were added and maintained at room temperature for 30 min. Trypsin (10 mg/ml) and Trichostatin A (final concentration: […]) were added to the resulting mixture which was reacted at the same temperature for 20 min, thereby terminating the reaction. The enzyme activity-inhibitory concentration of the compound added was determined using a fluorometer. As a control compound, suberoylanilide hydroxamic acid (SAHA) was used. IC50 in Table 1 below refers to a concentration of the compound that leads to a 50% decrease in activity of HDAC.
For CN(C)c1ccc(-c2oc(CCCCCCC(=O)NO)nc2-c2ccccc2)cc1 [Example 12, 7-[5-(4-dimethylamino-phenyl)-4-phenyl-oxazol-2-yl]-heptanoic acid hydroxyamide], the IC50 was 0.00501 µM. In the case of COc1ccc(-c2nc(CCCCCCC(=O)NO)oc2-c2cccnc2)cc1 [Example 13, 7-[4-(4-methoxy-phenyl)-5-pyridin-3-yl-oxazol-2-yl]-heptanoic acid hydroxyamide], the IC50 is reported as 0.0145 µM. For CN(C)c1ccc(-c2nc(CCCCCCC(=O)NO)oc2-c2cccnc2)cc1 [Example 14, 7-[4-(4-dimethylamino-phenyl)-5-pyridin-3-yl-oxazol-2-yl]-heptanoic acid hydroxyamide], the IC50 was 0.00295 µM. O=C(CCCCCCc1nc(-c2ccccc2)c(-c2ccncc2)o1)NO [Example 17, 7-(4-phenyl-5-pyridin-4-yl-oxazol-2-yl)-heptanoic acid hydroxyamide] showed an IC50 of 0.0195 µM. In the case of CCOc1ccc(-c2oc(CCCCCCC(=O)NO)nc2-c2ccncc2)cc1 [Example 19, 7-[5-(4-ethoxy-phenyl)-4-pyridin-4-yl-oxazol-2-yl]-heptanoic acid hydroxyamide], the IC50 is reported as 0.00068 µM.

Test system: HeLa
Test: In vitro toxicity / growth inhibition (CellTiter-Glo), HeLa
Assay type: cell-based
Settings: Homo sapiens, 48 hr
Description: (§1) In order to determine in vitro toxicity of a compound in accordance with the present invention, 18 species of human cancer cell lines (HeLa, cervical cancer cell line; HCT116, SW480, SW620, RKO, colon cancer cell lines; H460, H1299, A549, lung cancer cell lines; MCF7, MDA-MB231, MDA-MB453, breast cancer cell lines; Jurkat, K562, THP1, Ramos, U937, blood cancer cell lines; PC3, DU145, prostate cancer cell lines) were used. Cell lines were cultured in RPMI 1640 culture medium containing penicillin/streptomycin (100 units/mL) and heat-inactivated 5% fetal bovine serum (FBS) under standard culture conditions ([…], 5% CO2, and 100% relative humidity). Thereafter, single cell suspension was obtained via trypsin treatment and pipetting. The suspension was diluted with the same medium such that a cell density is in a range of 8×10^3 to 1.5×10^4 cells/well, and was transferred to a 96-well microtiter plate. After culturing for 24 hours, cell cultures were treated with respective compounds of Examples at various concentrations. […] The above evaluation was carried out according to the methods given in a manufacture's manual. GI50 in Table 1 below refers to a concentration that compounds of Examples cause 50% growth inhibition of various cancer cells.
Compound CN(C)c1ccc(-c2oc(CCCCCCC(=O)NO)nc2-c2ccccc2)cc1 [Example 12, 7-[5-(4-dimethylamino-phenyl)-4-phenyl-oxazol-2-yl]-heptanoic acid hydroxyamide] has a GI50 of 14.1 µM. Work on COc1ccc(-c2nc(CCCCCCC(=O)NO)oc2-c2cccnc2)cc1 [Example 13, 7-[4-(4-methoxy-phenyl)-5-pyridin-3-yl-oxazol-2-yl]-heptanoic acid hydroxyamide] yielded a GI50 of 3.9 µM. In the case of CN(C)c1ccc(-c2nc(CCCCCCC(=O)NO)oc2-c2cccnc2)cc1 [Example 14, 7-[4-(4-dimethylamino-phenyl)-5-pyridin-3-yl-oxazol-2-yl]-heptanoic acid hydroxyamide], the GI50 is reported as 7.8 µM. Work on O=C(CCCCCCc1nc(-c2ccccc2)c(-c2ccncc2)o1)NO [Example 17, 7-(4-phenyl-5-pyridin-4-yl-oxazol-2-yl)-heptanoic acid hydroxyamide] yielded a GI50 of 3.5 µM. Work on CCOc1ccc(-c2oc(CCCCCCC(=O)NO)nc2-c2ccncc2)cc1 [Example 19, 7-[5-(4-ethoxy-phenyl)-4-pyridin-4-yl-oxazol-2-yl]-heptanoic acid hydroxyamide] yielded a GI50 of 2.9 µM.

Test system: HCT116
Test: In vitro toxicity / growth inhibition (CellTiter-Glo), HCT116
Assay type: cell-based
Settings: Homo sapiens, HCT-116; HCT116, 48 hr
Description: as §1
Compound CN(C)c1ccc(-c2oc(CCCCCCC(=O)NO)nc2-c2ccccc2)cc1 [Example 12, 7-[5-(4-dimethylamino-phenyl)-4-phenyl-oxazol-2-yl]-heptanoic acid hydroxyamide] has a GI50 of 9.8 µM. Compound COc1ccc(-c2nc(CCCCCCC(=O)NO)oc2-c2cccnc2)cc1 [Example 13, 7-[4-(4-methoxy-phenyl)-5-pyridin-3-yl-oxazol-2-yl]-heptanoic acid hydroxyamide] has a GI50 of 3.9 µM. CN(C)c1ccc(-c2nc(CCCCCCC(=O)NO)oc2-c2cccnc2)cc1 [Example 14, 7-[4-(4-dimethylamino-phenyl)-5-pyridin-3-yl-oxazol-2-yl]-heptanoic acid hydroxyamide] gave a GI50 of 8.7 µM. Compound O=C(CCCCCCc1nc(-c2ccccc2)c(-c2ccncc2)o1)NO [Example 17, 7-(4-phenyl-5-pyridin-4-yl-oxazol-2-yl)-heptanoic acid hydroxyamide] has a GI50 of 5.4 µM. For CCOc1ccc(-c2oc(CCCCCCC(=O)NO)nc2-c2ccncc2)cc1 [Example 19, 7-[5-(4-ethoxy-phenyl)-4-pyridin-4-yl-oxazol-2-yl]-heptanoic acid hydroxyamide], the GI50 was 4 µM.

Test system: H460
Test: In vitro toxicity / growth inhibition (CellTiter-Glo), H460
Assay type: cell-based
Settings: Homo sapiens, NCI-H460; H460, 48 hr
Description: as §1
CN(C)c1ccc(-c2oc(CCCCCCC(=O)NO)nc2-c2ccccc2)cc1 [Example 12, 7-[5-(4-dimethylamino-phenyl)-4-phenyl-oxazol-2-yl]-heptanoic acid hydroxyamide] showed a GI50 of 19.5 µM. In the case of COc1ccc(-c2nc(CCCCCCC(=O)NO)oc2-c2cccnc2)cc1 [Example 13, 7-[4-(4-methoxy-phenyl)-5-pyridin-3-yl-oxazol-2-yl]-heptanoic acid hydroxyamide], the GI50 is reported as 4.4 µM. In the case of CN(C)c1ccc(-c2nc(CCCCCCC(=O)NO)oc2-c2cccnc2)cc1 [Example 14, 7-[4-(4-dimethylamino-phenyl)-5-pyridin-3-yl-oxazol-2-yl]-heptanoic acid hydroxyamide], the GI50 is reported as 23.5 µM. For O=C(CCCCCCc1nc(-c2ccccc2)c(-c2ccncc2)o1)NO [Example 17, 7-(4-phenyl-5-pyridin-4-yl-oxazol-2-yl)-heptanoic acid hydroxyamide], the GI50 was 7.3 µM. With CCOc1ccc(-c2oc(CCCCCCC(=O)NO)nc2-c2ccncc2)cc1 [Example 19, 7-[5-(4-ethoxy-phenyl)-4-pyridin-4-yl-oxazol-2-yl]-heptanoic acid hydroxyamide] the GI50 was 4.1 µM.

Test system: MCF7
Test: In vitro toxicity / growth inhibition (CellTiter-Glo), MCF7
Assay type: cell-based
Settings: Homo sapiens; MCF7, 48 hr
Description: as §1
CN(C)c1ccc(-c2oc(CCCCCCC(=O)NO)nc2-c2ccccc2)cc1 [Example 12, 7-[5-(4-dimethylamino-phenyl)-4-phenyl-oxazol-2-yl]-heptanoic acid hydroxyamide] gave a GI50 of 6.9 µM. For COc1ccc(-c2nc(CCCCCCC(=O)NO)oc2-c2cccnc2)cc1 [Example 13, 7-[4-(4-methoxy-phenyl)-5-pyridin-3-yl-oxazol-2-yl]-heptanoic acid hydroxyamide], the GI50 was 1 µM. In the case of CN(C)c1ccc(-c2nc(CCCCCCC(=O)NO)oc2-c2cccnc2)cc1 [Example 14, 7-[4-(4-dimethylamino-phenyl)-5-pyridin-3-yl-oxazol-2-yl]-heptanoic acid hydroxyamide], the GI50 is reported as 8.7 µM. With O=C(CCCCCCc1nc(-c2ccccc2)c(-c2ccncc2)o1)NO [Example 17, 7-(4-phenyl-5-pyridin-4-yl-oxazol-2-yl)-heptanoic acid hydroxyamide] the GI50 was 1.8 µM. CCOc1ccc(-c2oc(CCCCCCC(=O)NO)nc2-c2ccncc2)cc1 [Example 19, 7-[5-(4-ethoxy-phenyl)-4-pyridin-4-yl-oxazol-2-yl]-heptanoic acid hydroxyamide] gave a GI50 of 1.1 µM.

Test system: not listed separately
Test: Solubility
Assay type: physicochemical
Settings: not given
CN(C)c1ccc(-c2oc(CCCCCCC(=O)NO)nc2-c2ccccc2)cc1 [Example 12, 7-[5-(4-dimethylamino-phenyl)-4-phenyl-oxazol-2-yl]-heptanoic acid hydroxyamide] showed a solubility of 0.7 mg/mL (≈ 1720 µM). In the case of COc1ccc(-c2nc(CCCCCCC(=O)NO)oc2-c2cccnc2)cc1 [Example 13, 7-[4-(4-methoxy-phenyl)-5-pyridin-3-yl-oxazol-2-yl]-heptanoic acid hydroxyamide], the solubility is reported as 0.9 mg/mL (≈ 2280 µM). CN(C)c1ccc(-c2nc(CCCCCCC(=O)NO)oc2-c2cccnc2)cc1 [Example 14, 7-[4-(4-dimethylamino-phenyl)-5-pyridin-3-yl-oxazol-2-yl]-heptanoic acid hydroxyamide] gave a solubility of 1 mg/mL (≈ 2450 µM). In the case of O=C(CCCCCCc1nc(-c2ccccc2)c(-c2ccncc2)o1)NO [Example 17, 7-(4-phenyl-5-pyridin-4-yl-oxazol-2-yl)-heptanoic acid hydroxyamide], the solubility is reported as 0.9 mg/mL (≈ 2460 µM). Compound CCOc1ccc(-c2oc(CCCCCCC(=O)NO)nc2-c2ccncc2)cc1 [Example 19, 7-[5-(4-ethoxy-phenyl)-4-pyridin-4-yl-oxazol-2-yl]-heptanoic acid hydroxyamide] has a solubility of 0.7 mg/mL (≈ 1710 µM).

Test system: Raw cell
Test: Inhibition of LPS-induced NO increases
Assay type: cell-based, Mouse
Settings: 5 μM compound, LPS, 18 hours, Griess Reagent
Description: As one of the methods to confirm anti-inflammatory responses, inhibition of increases in nitric oxide (NO) due to lipopolysaccharide (LPS) was carried out. Mouse cell line (Raw cell) was cultured in RPMI 1640 culture medium containing penicillin/streptomycin (100 units/mL) and heat-inactivated 5% fetal bovine serum (FBS) under standard culture conditions ([…], 5% CO2, 37° C., and 100% relative humidity). Test compounds were dissolved in dimethylsulfoxide (DMSO) and were used as a final concentration of 1 to 40 μM. Cells were proliferated to a cell density of 5×10^3 to 2×10^4 cells on a 24-well plate and were treated with the respective compounds (equal amounts of 5 μM) 1 hour prior to treatment with LPS ([…]). The thus-treated cells were cultured for 18 hours, and thereafter the amounts of NO thus produced were measured using Griess Reagent. Measurement was confirmed using an absorption spectrophotometer at 540 nm. The value was expressed as percentage (%) relative to a control in which LPS alone was treated.
For CN(C)c1ccc(-c2oc(CCCCCCC(=O)NO)nc2-c2ccccc2)cc1 [Example 12, 7-[5-(4-dimethylamino-phenyl)-4-phenyl-oxazol-2-yl]-heptanoic acid hydroxyamide], the NO was 72.9 μM/L. Compound COc1ccc(-c2nc(CCCCCCC(=O)NO)oc2-c2cccnc2)cc1 [Example 13, 7-[4-(4-methoxy-phenyl)-5-pyridin-3-yl-oxazol-2-yl]-heptanoic acid hydroxyamide] has an NO of 57.1 μM/L. CN(C)c1ccc(-c2nc(CCCCCCC(=O)NO)oc2-c2cccnc2)cc1 [Example 14, 7-[4-(4-dimethylamino-phenyl)-5-pyridin-3-yl-oxazol-2-yl]-heptanoic acid hydroxyamide] showed an NO of 69.6 μM/L. Compound O=C(CCCCCCc1nc(-c2ccccc2)c(-c2ccncc2)o1)NO [Example 17, 7-(4-phenyl-5-pyridin-4-yl-oxazol-2-yl)-heptanoic acid hydroxyamide] has an NO of 59.6 μM/L.

Same assay, conditions: Mus musculus, 18 h; 5 μM compound, relative to LPS alone control
Work on CN(C)c1ccc(-c2oc(CCCCCCC(=O)NO)nc2-c2ccccc2)cc1 [Example 12, 7-[5-(4-dimethylamino-phenyl)-4-phenyl-oxazol-2-yl]-heptanoic acid hydroxyamide] yielded an activity at 5 µM of 83.7%. Compound COc1ccc(-c2nc(CCCCCCC(=O)NO)oc2-c2cccnc2)cc1 [Example 13, 7-[4-(4-methoxy-phenyl)-5-pyridin-3-yl-oxazol-2-yl]-heptanoic acid hydroxyamide] has an activity at 5 µM of 39.2%. In the case of CN(C)c1ccc(-c2nc(CCCCCCC(=O)NO)oc2-c2cccnc2)cc1 [Example 14, 7-[4-(4-dimethylamino-phenyl)-5-pyridin-3-yl-oxazol-2-yl]-heptanoic acid hydroxyamide], the activity at 5 µM is reported as 74.4%. O=C(CCCCCCc1nc(-c2ccccc2)c(-c2ccncc2)o1)NO [Example 17, 7-(4-phenyl-5-pyridin-4-yl-oxazol-2-yl)-heptanoic acid hydroxyamide] gave an activity at 5 µM of 46.1%.
